Read-outs that look alike come from different tables or passages of the source.
Test system: LPS-induced IL-6 release level from THP-1 cells
Experiment: Test of IL-6 release from THP-1 cells (LPS-induced, IL-6 in supernatant detected by CBA)
Assay type: cell-based
Settings: Homo sapiens, read-out: Inhibition rate @ 10 uM
How it was run: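 THP-1 cells were treated with compound at final 30, 10, 3 and 1 uM, with dexamethasone 100 nM as reference, then stimulated with LPS. The LPS working solution was 800 ng/ml. After 24 h at 37 °C, IL-6 in the supernatant was measured by CBA.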

[1] = inflammatory factor IL-6 detected by CBA, compound 10 uM, LPS-stimulated THP-1 cells, supernatant after 24 hours

| SMILES | inhibition at 10 µM [1] | inhibition at 10 µM (THP-1, 24 h) |
| --- | --- | --- |
| C=C1CCC2[C@]3(C)CO[C@@H](C4CCCC4)O[C@@H]3CC[C@@]2(C)[C@@H]1CCOC1CCN(S(=O)(=O)C2CC2)CC1 (stereo partly drawn) [Compound 484, 4-(2-((3R,4aR,6aS,7R,10bR)-3-cyclopentyl-6a,10b-dimethyl-8-dihydromethylene-decahydro-1H-naphtho[2,1-d][1,3]dioxin-7-yl)ethoxyl)-1-(cyclopropylsulfonyl)piperidine] | > 60% | – |
| C=C1CCC2[C@]3(C)CO[C@@H](C4CCCC4)O[C@@H]3CC[C@@]2(C)[C@@H]1CCN(CC(=O)O)CC(=O)O (stereo partly drawn) [Compound 404, 2,2′-((2-((3R,4aR,6aS,7R,10bR)-3-cyclopentyl-6a,10b-dimethyl-8-methylene-decahydro-1H-naphtho[2,1-d][1,3]dioxin-7-yl)ethyl)azanediyl)diacetic acid] | – | < 30% |
| C=C1CCC2[C@]3(C)CO[C@@H](C4CCCC4)O[C@@H]3CC[C@@]2(C)[C@@H]1CCN(CCO)CCCN(C)C (stereo partly drawn) [Compound 284, 2-((2-((3R,4aR,6aS,7R,10bR)-3-cyclopentyl-6a, 10b-dimethyl-8-methylene-decahydro-1H-naphtho[2,1-d][1,3]dioxin-7-yl)ethyl)(3-(dimethylamino)propyl)amino)ethanol] | 30 to 60% | – |
| C=C1CCC2[C@]3(C)CO[C@@H](C4CCCCC4)O[C@@H]3CC[C@@]2(C)[C@@H]1CCOc1ccncc1 (stereo partly drawn) [Compound 429, 4-(2-((3R,4aR,6aS,7R,10bR)-3-cyclohexyl-6a,10b-dimethyl-8-dihydromethylenedecahydro-1H-naphtho[2,1-d][1,3]dioxin-7-yl)ethoxy)pyridine] | < 30% | – |
| C=C1CCC2[C@]3(C)CO[C@@H](C4CCCC4)O[C@@H]3CC[C@@]2(C)[C@@H]1CCOc1ccnc(OC)c1 (stereo partly drawn) [Compound 420, 4-(2-((3R,4aR,6aS,7R,10bR)-3-cyclopentyl-6a,10b-dimethyl-8-dihydromethylenedecahydro-1H-naphtho[2,1-d][1,3]dioxin-7-yl)ethoxy)-2-methoxypyridine] | < 30% | – |
| C=C1CCC2[C@]3(C)CO[C@@H](C4CCCC4)O[C@@H]3CC[C@@]2(C)[C@@H]1CCOc1cncc(OC)c1 (stereo partly drawn) [Compound 442, 3-(2-((3R,4aR,6aS,7R,10bR)-3-cyclopentyl-6a,10b-dimethyl-8-dihydromethylenedecahydro-1H-naphtho[2,1-d][1,3]dioxin-7-yl)ethoxy)-5-methoxypyridine] | 30 to 60% | – |
| C=C1CCC2[C@]3(C)CO[C@@H](C4CCCC4)O[C@@H]3CC[C@@]2(C)[C@@H]1CCOc1cnccc1C(=O)O (stereo partly drawn) [Compound 415, 3-(2-((3R,4aR,6aS,7R,10bR)-3-cyclopentyl-6a,10b-dimethyl-8-dihydromethylenedecahydro-1H-naphtho[2,1-d][1,3]dioxin-7-yl)ethoxy)isonicotinic acid] | > 60% | – |
| C=C1CCC2[C@]3(C)CO[C@@H](C4CCCC4)O[C@@H]3CC[C@@]2(C)[C@@H]1CCOc1cccc(C(=O)O)c1 (stereo partly drawn) [Compound 423, 3-(2-((3R,4aR,6aS,7R,10bR)-3-cyclopentyl-6a,10b-dimethyl-8-dihydromethylenedecahydro-1H-naphtho[2,1-d][1,3]dioxin-7-yl)ethoxy)benzoic acid] | 30 to 60% | – |
| C=C1CCC2[C@]3(C)CO[C@@H](c4ccc(F)c(F)c4)O[C@@H]3CC[C@@]2(C)[C@@H]1CCN1CCC(CO)CC1 (stereo partly drawn) [Compound 130, (1-(2-((3R,4aR,6aS,7R,10bR)-3-(3,4-difluorophenyl)-6a,10b-dimethyl-8-methylenedecahydro-1H-naphtho[2,1-d][1,3]dioxin-7-yl)ethyl)piperidin-4-yl)methanol] | < 30% | – |
| C=C1CCC2[C@]3(C)CO[C@@H](C4CCCC4)O[C@@H]3CC[C@@]2(C)[C@@H]1CCN1CCC(C(=O)O)CC1 (stereo partly drawn) [Compound 256, 1-(2-((3R,4aR,6aS,7R,10bR)-3-cyclopentyl-6a,10b-dimethyl-8-methylene-decahydro-1H-naphtho[2,1-d][1,3]dioxin-7-yl)ethyl)piperidin-4-carboxylic acid] | < 30% | – |
| C=C1CCC2[C@]3(C)CO[C@@H](C4CCCC4)O[C@@H]3CC[C@@]2(C)[C@@H]1CCOc1ccnc(N)c1 (stereo partly drawn) [Compound 321, 4-(2-((3R,4aR,6aS,7R,10bR)-3-cyclopentyl-6a,10b-dimethyl-8-dihydromethylenedecahydro-1H-naphtho[2,1-d][1,3]dioxin-7-yl)ethoxy)-pyridin-2-amine] | < 30% | – |
| C=C1CCC2[C@]3(C)CO[C@@H](C4CCCC4)O[C@@H]3CC[C@@]2(C)[C@@H]1CCN1CCC2(CCN(C)CC2)C1 (stereo partly drawn) [Compound 181] | < 30% | – |
| C=C1CCC2[C@]3(C)CO[C@@H](C4CCCC4)O[C@@H]3CC[C@@]2(C)[C@@H]1CCNCC(=O)O (stereo partly drawn) [Compound 403, 2-((2-((3R,4aR,6aS,7R,10bR)-3-cyclopentyl-6a,10b-dimethyl-8-methylenedecahydro-1H-naphtho[2,1-d][1,3]dioxin-7-yl)ethyl)amino)acetic acid] | < 30% | – |
| C=C1CCC2[C@]3(C)CO[C@@H](C4CCCC4)O[C@@H]3CC[C@@]2(C)[C@@H]1CCOc1ccccn1 (stereo partly drawn) [Compound 317, 2-(2-((3R,4aR,6aS,7R,10bR)-3-cyclopentyl-6a,10b-dimethyl-8-dihydromethylenedecahydro-1H-naphtho[2,1-d][1,3]dioxin-7-yl)ethoxy) pyridine] | > 60% | – |
| C=C1CCC2[C@]3(C)CO[C@@H](c4ccc(F)c(F)c4)O[C@@H]3CC[C@@]2(C)[C@@H]1CCN1CCN(C)C1=O (stereo partly drawn) [Compound 212, 3-(2-((3R,4aR,6aS,7R,10bR)-3-(3,4-difluorophenyl)-6a,10b-dimethyl-8-decahydromethylene-1H-naphtho[2,1-d][1,3]dioxin-7-yl)ethyl)-1-methyltetrahydroimidazol-2-one] | > 60% | – |
| C=C1CCC2[C@]3(C)COC4(CCCC4)O[C@@H]3CC[C@@]2(C)[C@@H]1CCOc1ccncc1 (stereo partly drawn) [Compound 416] | > 60% | – |
| C=C1CCC2[C@]3(C)CO[C@@H](C4CCCC4)O[C@@H]3CC[C@@]2(C)[C@@H]1CCOc1ccncc1 (stereo partly drawn) [Compound 297, 4-(2-((3R,4aR,6aS,7R,10bR)-3-cyclopentyl-6a,10b-dimethyl-8-dihydromethylenedecahydro-1H-naphtho[2,1-d][1,3]dioxin-7-yl)ethoxy)pyridine] | > 60% | – |
| C=C1CCC2[C@]3(C)CO[C@@H](C4CCCC4)O[C@@H]3CC[C@@]2(C)[C@@H]1CCN1CCC[C@H]1C(=O)OC (stereo partly drawn) [Compound 147] | < 30% | – |
| C=C1CCC2[C@]3(C)CO[C@@H](C4CCCC4)O[C@@H]3CC[C@@]2(C)[C@@H]1CCOc1cncc(O)c1 (stereo partly drawn) [Compound 443, 5-(2-((3R,4aR,6aS,7R,10bR)-3-cyclopentyl-6a,10b-dimethyl-8-dihydromethylenedecahydro-1H-naphtho[2,1-d][1,3]dioxin-7-yl)ethoxy)-pyridin-3-ol] | 30 to 60% | – |
| C=C1CCC2[C@]3(C)CO[C@@H](C4CCCC4)O[C@@H]3CC[C@@]2(C)[C@@H]1CCOC1CCN(CC(=O)O)CC1 (stereo partly drawn) [Compound 426, 2-(4-(2-((3R,4aR,6aS,7R,10bR)-3-cyclopentyl-6a,10b-dimethyl-8-dihydromethylenedecahydro-1H-naphtho[2,1-d][1,3]dioxin-7-yl)ethoxy)piperidine-1-yl)acetic acid] | 30 to 60% | – |
| C=C1CCC2[C@]3(C)CO[C@@H](C4CC4)O[C@@H]3CC[C@@]2(C)[C@@H]1CCOc1ccncc1 (stereo partly drawn) [Compound 400, 4-(2-((3R,4aR,6aS,7R,10bR)-3-cyclopropyl-6a,10b-dimethyl-8-dihydromethylenedecahydro-1H-naphtho[2,1-d][1,3]dioxin-7-yl)ethoxy)pyridine] | > 60% | – |
| C=C1CCC2[C@]3(C)CO[C@@H](C4CCCC4)O[C@@H]3CC[C@@]2(C)[C@@H]1CCOC1CN(C(C)C)C1 (stereo partly drawn) [Compound 313, 3-(2-((3R,4aR,6aS,7R,10bR)-3-cyclopentyl-6a,10b-dimethyl-8-dihydromethylenedecahydro-1H-naphtho[2,1-d][1,3]dioxin-7-yl)ethoxy)-1-isopropyl azetidine] | – | 30 to 60% |
| C=C1CCC2[C@]3(C)CO[C@@H](C4CCCC4)O[C@@H]3CC[C@@]2(C)[C@@H]1CCOc1cc(F)ccc1C(=O)O (stereo partly drawn) [Compound 441, 2-(2-((3R,4aR,6aS,7R,10bR)-3-cyclopentyl-6a,10b-dimethyl-8-dihydromethylenedecahydro-1H-naphtho[2,1-d][1,3]dioxin-7-yl)ethoxy)-4-fluorobenzoic acid] | 30 to 60% | – |
| C=C1CCC2[C@]3(C)CO[C@@H](C4CCCC4)O[C@@H]3CC[C@@]2(C)[C@@H]1CCN1CCCC1C(=O)O (stereo partly drawn) [Compound 163, 1-(2-((3R,4aR,6aS,7R,10bR)-3-cyclopentyl-6a,10b-dimethyl-8-methylenedecahydro-1H-naphtho[2,1-d][1,3]dioxin-7-yl)ethyl)pyrrolidine-2-carboxylic acid] | > 60% | – |

Reference: patent US10717720B2, “Modified compound of andrographolide” (Heilongjiang Zhenbaodao Pharmaceutical Co., Ltd., priority 2015, dated 2020)
